From PubChem BioAssay AID1963842 (Molecular Pharmacology Branch, DTP, NCI, 2024)

System: 677734-321-R-J1-PDC complex spheroid viability
Experiment: Anticancer human tumor 677734-321-R-J1-PDC patient-derived soft tissue sarcoma cell line growth inhibition [POLQ]
Details: for IC50: curve of first compound; for viability, T/C: stronger effect = lower value
Summary of the method: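 Growth inhibition in 3D: complex spheroids (tumor PDC, HUVEC, MSC) treated with POLQ inhibitor combinations; where Cmax unknown, highest tested concentration 10 microM, except SN-38 at 1 microM.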

[1] = second compound 0.0316 µM, first compound 0.0316 µM
[2] = second compound 0.0316 µM, first compound 0.1 µM
[3] = second compound 0.0316 µM, first compound 0.316 µM
[4] = second compound 0.0316 µM, first compound 1 µM
[5] = second compound 0.0316 µM, first compound 3.16 µM
[6] = second compound 0.0316 µM, first compound 10 µM
[7] = second compound 0.1 µM, first compound 0.0316 µM
[8] = second compound 0.1 µM, first compound 0.1 µM
[9] = second compound 0.1 µM, first compound 0.316 µM
[10] = second compound 0.1 µM, first compound 1 µM
[11] = second compound 0.1 µM, first compound 3.16 µM
[12] = second compound 0.1 µM, first compound 10 µM
[13] = second compound 0.316 µM, first compound 0.0316 µM
[14] = second compound 0.316 µM, first compound 0.1 µM
[15] = second compound 0.316 µM, first compound 0.316 µM
[16] = second compound 0.316 µM, first compound 1 µM
[17] = second compound 0.316 µM, first compound 3.16 µM
[18] = second compound 0.316 µM, first compound 10 µM
[19] = second compound 1 µM, first compound 0.0316 µM
[20] = second compound 1 µM, first compound 0.1 µM
[21] = second compound 1 µM, first compound 0.316 µM
[22] = second compound 1 µM, first compound 1 µM
[23] = second compound 1 µM, first compound 3.16 µM
[24] = second compound 1 µM, first compound 10 µM
[25] = second compound 3.16 µM, first compound 0.0316 µM
[26] = second compound 3.16 µM, first compound 0.1 µM
[27] = second compound 3.16 µM, first compound 0.316 µM
[28] = second compound 3.16 µM, first compound 1 µM
[29] = second compound 3.16 µM, first compound 3.16 µM
[30] = second compound 3.16 µM, first compound 10 µM
[31] = second compound 10 µM, first compound 0.0316 µM
[32] = second compound 10 µM, first compound 0.1 µM
[33] = second compound 10 µM, first compound 0.316 µM
[34] = second compound 10 µM, first compound 1 µM
[35] = second compound 10 µM, first compound 3.16 µM
[36] = second compound 10 µM, first compound 10 µM
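Note: spheroids exposed to compounds for one week.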
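Throughout, for viability, T/C: 100% = vehicle DMSO treated spheroids.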

Q: How did the IC50 (second compound 0.0316 µM) turn out when `COc1cc(C2c3cc4c(cc3C(OC3OC5COC(C)OC5C(O)C3O)C3COC(=O)C23)OCO4)cc(OC)c1O` (stereo unspecified) + Cc1cccc(N(C)C(=O)C2C(O)CCN2c2nc(C)cc(C(F)(F)F)c2C#N)c1 was run?
A: 773 nM

Q: And the IC50 (second compound 0.1 µM)?
A: 873 nM

Q: And the IC50 (second compound 0.316 µM)?
A: 907 nM

Q: And the IC50 (second compound 1 µM)?
A: 821 nM

Q: What about the IC50 (second compound 3.16 µM) of the same molecule?
A: 641 nM

Q: What about the IC50 (second compound 10 µM) of the same molecule?
A: 814 nM

Q: And the viability, T/C [1]?
A: 99.4%

Q: And the viability, T/C [2]?
A: 101%

Q: And the viability, T/C [3]?
A: 60.8%

Q: What about the viability, T/C [4] of the same molecule?
A: 47%

Q: And the viability, T/C [5]?
A: 26.6%

Q: And the viability, T/C [6]?
A: 10.5%

Q: What about the viability, T/C [7] of the same molecule?
A: 103%

Q: What about the viability, T/C [8] of the same molecule?
A: 87.7%

Q: What about the viability, T/C [9] of the same molecule?
A: 63.3%

Q: And the viability, T/C [10]?
A: 54.3%

Q: What about the viability, T/C [11] of the same molecule?
A: 23%

Q: And the viability, T/C [12]?
A: 10.7%

Q: And the viability, T/C [13]?
A: 107%

Q: And the viability, T/C [14]?
A: 90.6%

Q: What about the viability, T/C [15] of the same molecule?
A: 68.6%

Q: And the viability, T/C [16]?
A: 52.4%

Q: And the viability, T/C [17]?
A: 22.5%

Q: What about the viability, T/C [18] of the same molecule?
A: 8.11%

Q: And the viability, T/C [19]?
A: 114%

Q: What about the viability, T/C [20] of the same molecule?
A: 86.1%

Q: And the viability, T/C [21]?
A: 62.6%

Q: And the viability, T/C [22]?
A: 50.1%

Q: What about the viability, T/C [23] of the same molecule?
A: 23.7%

Q: What about the viability, T/C [24] of the same molecule?
A: 9.86%

Q: And the viability, T/C [25]?
A: 104%

Q: What about the viability, T/C [26] of the same molecule?
A: 88.7%

Q: What about the viability, T/C [27] of the same molecule?
A: 52%

Q: What about the viability, T/C [28] of the same molecule?
A: 50.7%

Q: And the viability, T/C [29]?
A: 22%

Q: What about the viability, T/C [30] of the same molecule?
A: 10.1%

Q: And the viability, T/C [31]?
A: 107%

Q: And the viability, T/C [32]?
A: 83.3%

Q: And the viability, T/C [33]?
A: 65.8%

Q: What about the viability, T/C [34] of the same molecule?
A: 52.7%

Q: And the viability, T/C [35]?
A: 21.5%

Q: And the viability, T/C [36]?
A: 14.7%

Q: For `COc1cccc2c1C(=O)c1c(O)c3c(c(O)c1C2=O)CC(O)(C(=O)CO)CC3OC1CC(N)C(O)C(C)O1` (stereo unspecified) + Cc1cccc(N(C)C(=O)C2C(O)CCN2c2nc(C)cc(C(F)(F)F)c2C#N)c1, which IC50 (second compound 0.0316 µM) is on record?
A: 142 nM

Q: What about the IC50 (second compound 0.1 µM) of the same molecule?
A: 123 nM

Q: And the IC50 (second compound 0.316 µM)?
A: 115 nM

Q: What about the IC50 (second compound 1 µM) of the same molecule?
A: 83.6 nM

Q: What about the IC50 (second compound 3.16 µM) of the same molecule?
A: 83.7 nM

Q: What about the IC50 (second compound 10 µM) of the same molecule?
A: 79.5 nM

Q: What about the viability, T/C [1] of the same molecule?
A: 73.8%

Q: What about the viability, T/C [2] of the same molecule?
A: 68.2%

Q: What about the viability, T/C [3] of the same molecule?
A: 8.09%

Q: And the viability, T/C [4]?
A: 0.74%

Q: And the viability, T/C [5]?
A: 1.88%

Q: And the viability, T/C [6]?
A: 3.67%

Q: What about the viability, T/C [7] of the same molecule?
A: 77.1%

Q: And the viability, T/C [8]?
A: 59.3%

Q: And the viability, T/C [9]?
A: 7.54%

Q: What about the viability, T/C [10] of the same molecule?
A: 0.78%

Q: What about the viability, T/C [11] of the same molecule?
A: 3.07%

Q: And the viability, T/C [12]?
A: 5.78%

Q: What about the viability, T/C [13] of the same molecule?
A: 89.2%

Q: What about the viability, T/C [14] of the same molecule?
A: 55.7%

Q: What about the viability, T/C [15] of the same molecule?
A: 9.71%

Q: And the viability, T/C [16]?
A: 0.66%

Q: And the viability, T/C [17]?
A: 2.56%

Q: What about the viability, T/C [18] of the same molecule?
A: 5.49%

Q: What about the viability, T/C [19] of the same molecule?
A: 102%

Q: And the viability, T/C [20]?
A: 40.4%

Q: And the viability, T/C [21]?
A: 7.53%

Q: What about the viability, T/C [22] of the same molecule?
A: 0.6%

Q: And the viability, T/C [23]?
A: 2.63%

Q: What about the viability, T/C [24] of the same molecule?
A: 4.09%

Q: And the viability, T/C [25]?
A: 99.3%

Q: And the viability, T/C [26]?
A: 41%

Q: What about the viability, T/C [27] of the same molecule?
A: 6.13%

Q: And the viability, T/C [28]?
A: 0.63%

Q: What about the viability, T/C [29] of the same molecule?
A: 3.14%

Q: What about the viability, T/C [30] of the same molecule?
A: 4.04%

Q: What about the viability, T/C [31] of the same molecule?
A: 94%

Q: And the viability, T/C [32]?
A: 39%

Q: What about the viability, T/C [33] of the same molecule?
A: 5.5%

Q: What about the viability, T/C [34] of the same molecule?
A: 1.83%

Q: What about the viability, T/C [35] of the same molecule?
A: 3.46%

Q: What about the viability, T/C [36] of the same molecule?
A: 3.24%

Q: With `O=c1[nH]cc(F)c(=O)[nH]1` + Cc1cccc(N(C)C(=O)C2C(O)CCN2c2nc(C)cc(C(F)(F)F)c2C#N)c1 as the molecule, how does the IC50 (second compound 0.0316 µM) read?
A: 5410 nM

Q: And the IC50 (second compound 0.1 µM)?
A: 2940 nM

Q: And the IC50 (second compound 0.316 µM)?
A: 3180 nM

Q: What about the IC50 (second compound 1 µM) of the same molecule?
A: 5910 nM

Q: And the IC50 (second compound 3.16 µM)?
A: 6990 nM

Q: What about the IC50 (second compound 10 µM) of the same molecule?
A: 2890 nM

Q: What about the viability, T/C [1] of the same molecule?
A: 104%

Q: What about the viability, T/C [2] of the same molecule?
A: 110%

Q: What about the viability, T/C [3] of the same molecule?
A: 111%

Q: What about the viability, T/C [4] of the same molecule?
A: 93.9%

Q: What about the viability, T/C [5] of the same molecule?
A: 54.6%

Q: What about the viability, T/C [6] of the same molecule?
A: 44.9%

Q: And the viability, T/C [7]?
A: 107%

Q: What about the viability, T/C [8] of the same molecule?
A: 103%

Q: And the viability, T/C [9]?
A: 104%

Q: And the viability, T/C [10]?
A: 76.5%

Q: And the viability, T/C [11]?
A: 49.2%

Q: What about the viability, T/C [12] of the same molecule?
A: 44.8%

Q: And the viability, T/C [13]?
A: 112%

Q: And the viability, T/C [14]?
A: 108%

Q: What about the viability, T/C [15] of the same molecule?
A: 103%

Q: And the viability, T/C [16]?
A: 97.7%

Q: What about the viability, T/C [17] of the same molecule?
A: 49.8%

Q: What about the viability, T/C [18] of the same molecule?
A: 47.2%

Q: And the viability, T/C [19]?
A: 104%

Q: What about the viability, T/C [20] of the same molecule?
A: 106%

Q: What about the viability, T/C [21] of the same molecule?
A: 108%

Q: And the viability, T/C [22]?
A: 90.9%

Q: And the viability, T/C [23]?
A: 55.9%

Q: What about the viability, T/C [24] of the same molecule?
A: 45.1%

Q: And the viability, T/C [25]?
A: 108%

Q: What about the viability, T/C [26] of the same molecule?
A: 105%

Q: And the viability, T/C [27]?
A: 112%

Q: And the viability, T/C [28]?
A: 101%

Q: And the viability, T/C [29]?
A: 54.3%

Q: And the viability, T/C [30]?
A: 48%

Q: And the viability, T/C [31]?
A: 104%

Q: And the viability, T/C [32]?
A: 99.3%

Q: What about the viability, T/C [33] of the same molecule?
A: 105%

Q: And the viability, T/C [34]?
A: 83%

Q: And the viability, T/C [35]?
A: 47.6%

Q: What about the viability, T/C [36] of the same molecule?
A: 46.8%
